# Measurements taken from patent US20250084079A1, “COMPOSITIONS AND METHODS FOR INHIBITION OF RAS” (TheRas, Inc., priority 2022, published 2025).
# Where two headings read alike, the source gives them in different places.
# Tests used:
# [1] = target: T1, Avi-KRAS G12D (1-169) GppNHp/RAF1 RBD-3xFLAG (52-151) (Homo sapiens, UniProt P01116, G12D); assay: RAS-effector PPI HTRF disruption assay, Raf1-GppNHp-KRAS G12D; type: biochemical
# T1 construct: 100 nM Avi-KRAS G12D (1-169) GppNHp
# Protocol: (§1) A protein:protein interaction (PPI) Homogeneous Time Resolved Fluorescence (HTRF) assay was used to determine the effectiveness of compounds of the present disclosure in disrupting KRAS protein and effector (RAF1 or PIK3 CA) binding.
# (§2) The HTRF assay used the following reagents and proteins: (i) 375 nM Avi-KRAS G12D/Q25A (1-169) GppNHp/3×FLAG-PI3KCA (157-299); (ii) 100 nM Avi-KRAS G12D (1-169) GppNHp/RAF1 RBD-3×FLAG (52-151); (iii) 50 nM Avi-KRAS G12V (1-169) GppNHp/RAF1 RBD-3×FLAG (52-151); (iv) 50 nM Avi-KRAS WT (1-169) GppNHp/RAF1 RBD-3×FLAG (52-151); and (v) 35 nM Avi-PI3K RBD CA-3×FLAG; Assay Buffer: 50 mM Tris pH 7.5, 100 mM NaCl, 5 mM MgCl2, 0.1% BSA, 0.01% Tween, 1 mM TCEP, 10% DMSO; Bead Buffer: 50 mM Tris pH 7.5, 0.01% Tween 20; Assay volume: 20 μL (384 well plate-low volume format); and Compound titration: 100-0.02 μM, 3× dilution series.
# (§3) The HTRF assay employed the following protocol:
# (§4) Compounds were dispensed in assay plate (384-well, Grenier Bione #784075) using Echo (model 555) with dose response settings: 200 nL final volume, titration from 100 μM as a 10-point dilution series. Protein mix was prepared in assay buffer, and dispensed on plates, 10 μL per well, then incubated for 1 h at room temperature, with 700 rpm shaking. Reagents mix was prepared and dispensed on plates, 10 μL per well, then incubated for 1 h at room temperature, with 700 rpm shaking.
# (§5) Plates were analyzed on an Envision plate reader using the following setting: Excitation 320 nm, Bandwidth […]; Emission 615 nm, Bandwidth […], Gain 100%, Flashes 100, Lag 60 μs. Data was reported as percentage of activity, with DMSO as 100%. Data was plotted and analyzed using Prism 8. The SPR Kd, biochemical Raf1-KRAS G12D/G12V/WT-GppNHP and PI3KCA-KRAS G12D/Q25A-GppNHp disruption assay IC50 of selected compounds described herein are shown in Table 4.
# [2] = target: T2, Avi-KRAS G12D/Q25A (1-169) GppNHp/3xFLAG-PI3KCA (157-299) (Homo sapiens, UniProt P01116, G12D/Q25A); assay: RAS-effector PPI HTRF disruption assay, PI3KCA-GppNHp-KRAS G12D/Q25A; type: biochemical
# T2 construct: 375 nM Avi-KRAS G12D/Q25A (1-169) GppNHp
# T2 sequence (P01116 1-169 isoform P01116-2 G12D/Q25A): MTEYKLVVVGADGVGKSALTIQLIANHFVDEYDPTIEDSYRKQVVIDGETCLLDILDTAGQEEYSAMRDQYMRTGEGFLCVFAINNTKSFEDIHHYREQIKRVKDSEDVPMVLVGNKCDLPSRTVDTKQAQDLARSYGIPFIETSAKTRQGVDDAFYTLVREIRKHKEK
# Protocol: as §1, §2, §3, §4, §5
# [3] = target: T3, Avi-KRAS G12V (1-169) GppNHp/RAF1 RBD-3xFLAG (52-151) (Homo sapiens, UniProt P01116, G12V); assay: RAS-effector PPI HTRF disruption assay, Raf1-GppNHp-KRAS G12V; type: biochemical
# T3 construct: 50 nM Avi-KRAS G12V (1-169) GppNHp
# T3 sequence (P01116 1-169 isoform P01116-2 G12V): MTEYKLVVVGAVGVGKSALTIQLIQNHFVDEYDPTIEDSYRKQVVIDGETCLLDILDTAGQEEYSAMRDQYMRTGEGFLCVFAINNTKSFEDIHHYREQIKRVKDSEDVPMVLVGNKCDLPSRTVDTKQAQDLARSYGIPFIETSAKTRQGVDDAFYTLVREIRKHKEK
# Protocol: as §1, §2, §3, §4, §5
# [4] = target: T4, Avi-KRAS WT (1-169) GppNHp/RAF1 RBD-3xFLAG (52-151) (Homo sapiens, UniProt P01116); assay: RAS-effector PPI HTRF disruption assay, Raf1-GppNHp-KRAS WT; type: biochemical
# T4 construct: 50 nM Avi-KRAS WT (1-169) GppNHp
# T4 sequence (P01116 1-169 isoform P01116-2): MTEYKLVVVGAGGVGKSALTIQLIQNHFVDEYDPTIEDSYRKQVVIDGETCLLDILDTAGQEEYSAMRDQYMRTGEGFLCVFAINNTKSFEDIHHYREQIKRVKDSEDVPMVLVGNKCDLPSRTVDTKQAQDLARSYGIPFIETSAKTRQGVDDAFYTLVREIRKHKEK
# Protocol: as §1, §2, §3, §4, §5
# [5] = tested on: pERK in GP2d cells (KRAS G12D); assay: Cell-based pERK HTRF assay in GP2d cell; settings: 60 min incubation
# Protocol: A pERK assay (Perkin Elmer) was used to determine the effectiveness of compounds in disrupting KRAS G12D protein/effector signaling in cells.
# On Day 1, cells (GP2d) were seeded into 96-well plates at 3×10^4 cells/well in 80 μL complete growth media (DMEM, 10% FBS).
# On Day 2, cells were treated with compounds at 0.25% DMSO. The source plate was created with compounds diluted in media at 5-fold the final assay concentration. The compounds were run in a 9-point concentration curve starting at 1 μM, with a half-log dilution between concentrations. 20 μL was transferred onto the cell plates (final volume in wells was 100 μL). Plates were harvested after 60 min incubation by aspirating media and adding kit-supplied 1× supplemented lysis buffer to all wells (50 μL per well). Plates were then placed on a plate shaker and incubated at 850 rpm for an additional 30 min.
# Antibody mixture solution is prepared by diluting aliquoted d2 and Eu Cryptate antibodies 1:20 in kit supplied detection buffer, mix the diluted antibodies solutions (1:1 v:v). 4 μL of this solution is then added to a 384-well detection plate (Perkin Elmer; 6008230).
# Samples were homogenized by pipetting up and down and then transferred (16 μL of cell lysates) from the 96-well cell culture plate to two wells of the HTRF 384-well detection plate containing the antibody solution. Plates were centrifuged (524 g for 1 min) and allowed to incubate between 4 and 24 h at room temperature. Maximum signal is reached after 4 h incubation time and remains stable over a period of 24 hours. Therefore, readings can be made between 4 and 24 h of incubation. Plates were centrifuged again (524 g for Imin), then analyzed on the EnVision plate reader using the following settings: Excitation 320 nm, Bandwidth 75 nm; Emission 615 nm, Bandwidth 85 nm; Gain 100%; Flashes 100; Lag 60 μs.
# T1 sequence (P01116 1-169 isoform P01116-2 G12D): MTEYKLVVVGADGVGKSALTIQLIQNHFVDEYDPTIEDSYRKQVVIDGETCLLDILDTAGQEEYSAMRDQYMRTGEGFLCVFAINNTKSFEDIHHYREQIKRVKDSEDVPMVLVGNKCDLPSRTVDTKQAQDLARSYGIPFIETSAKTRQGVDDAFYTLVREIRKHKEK
Structure (SMILES),IC50 [1] [nM],IC50 [2] [nM],IC50 [3] [nM],IC50 [4] [nM],IC50 ([5]; read-out: pERK-Gp2D-1 hr) [nM],"IC50 ([5]; GP2d, 1 h) [nM]"
"Nc1nc2c(-c3c(C(F)(F)F)cc4c(O[C@@H]5CCNC5)nc(OC[C@@]56CCCN5C[C@H](F)C6)nc4c3F)ccc(F)c2s1 (atropisomer, axis not shown) [Compound 4]",100 to 1000,100 to 1000,1000 to 10000,1000 to 10000,,
"Nc1nc2c(-c3c(C(F)(F)F)cc4c(O[C@@H]5CCNC5)nc(OC[C@@]56CCCN5C[C@H](F)C6)nc4c3F)ccc(F)c2s1 (atropisomer, axis not shown) [Compound 5]",> 10000,> 10000,> 10000,> 10000,,
"Nc1nc2c(-c3c(C(F)(F)F)cc4c(O[C@H]5C[C@H]6CC[C@@H](C5)N6)nc(OCC56CCCN5CCC6)nc4c3F)ccc(F)c2s1 (atropisomer, axis not shown) [Compound 6]",1000 to 10000,1000 to 10000,> 10000,1000 to 10000,,
"N#Cc1c(N)sc2c(F)ccc(-c3c(C(F)(F)F)cc4c(O[C@H]5CCC6(CNC6)C5)nc(OC[C@@]56CCCN5C[C@H](F)C6)nc4c3F)c12 (atropisomer, axis not shown) [Compound 78]",1000 to 10000,,> 10000,1000 to 10000,> 1000,
"N#Cc1c(N)sc2c(F)ccc(-c3c(C(F)(F)F)cc4c(O[C@H]5CCC6(CNC6)C5)nc(OC[C@@]56CCCN5C[C@H](F)C6)nc4c3F)c12 (atropisomer, axis not shown) [Compound 79]",≤ 100,,≤ 100,≤ 100,≤ 100,
"COC[C@H]1C[C@@H](Oc2nc(OC[C@@]34CCCN3C[C@H](F)C4)nc3c(F)c(-c4ccc(F)c5sc(N)c(C#N)c45)c(C(F)(F)F)cc23)CN1 (atropisomer, axis not shown) [Compound 80]",≤ 100,,100 to 1000,100 to 1000,≤ 100,
"COC[C@H]1C[C@@H](Oc2nc(OC[C@@]34CCCN3C[C@H](F)C4)nc3c(F)c(-c4ccc(F)c5sc(N)c(C#N)c45)c(C(F)(F)F)cc23)CN1 (atropisomer, axis not shown) [Compound 81]",> 10000,,> 10000,> 10000,> 1000,
C[C@H]1CNCC1Oc1nc(OC[C@@]23CCCN2C[C@H](F)C3)nc2c(F)c(-c3ccc(F)c4sc(N)nc34)c(C(F)(F)F)cc12 (some centres unmarked) [Compound 1],1000 to 10000,,,,,
CN1CCC[C@H]1COc1nc(OC2CNC2)c2cc(Cl)c(-c3ccc(F)c4sc(N)nc34)c(F)c2n1 [Compound 3],> 10000,,,,,
Nc1nc2c(-c3c(C(F)(F)F)cc4c(O[C@@H]5CCNC5)nc(OCC56CCCN5C[C@H](F)C6)nc4c3F)ccc(F)c2s1 (some centres unmarked) [Compound 4],,,,,,≤ 100
N#Cc1c(N)sc2c(F)ccc(-c3c(C(F)(F)F)cc4c(OC5CCC6(CC5)CNC6)nc(OC[C@@]56CCCN5C[C@H](F)C6)nc4c3F)c12 [Compound 40],≤ 100,,100 to 1000,≤ 100,,100 to 1000
N#Cc1c(N)sc2c(F)ccc(-c3c(C(F)(F)F)cc4c(OC5CC6(CNC6)C5)nc(OC[C@@]56CCCN5C[C@H](F)C6)nc4c3F)c12 [Compound 43],100 to 1000,,100 to 1000,100 to 1000,,100 to 1000
Nc1nc2c(-c3ccc4c(O[C@H]5CNC[C@H]5F)nc(OC[C@@]56CCCN5C[C@H](F)C6)nc4c3F)ccc(F)c2s1 [Compound 82],> 10000,,> 10000,> 10000,,> 1000

# Results, then the compound that gave them:
IC50 [1] [nM],IC50 [2] [nM],IC50 [3] [nM],IC50 [4] [nM],IC50 ([5]; read-out: pERK-Gp2D-1 hr) [nM],"IC50 ([5]; GP2d, 1 h) [nM]",Structure (SMILES)
≤ 100,,100 to 1000,100 to 1000,,≤ 100,"COC[C@@H]1C[C@@H](Oc2nc(OC[C@@]34CCCN3C[C@H](F)C4)nc3c(F)c(-c4ccc(F)c5sc(N)c(C#N)c45)c(C(F)(F)F)cc23)CN1 (atropisomer, axis not shown) [Compound 84]"
≤ 100,,100 to 1000,≤ 100,,100 to 1000,"N#Cc1c(N)sc2c(F)ccc(-c3c(C(F)(F)F)cc4c(O[C@@H]5CCC6(CNC6)C5)nc(OC[C@@]56CCCN5C[C@H](F)C6)nc4c3F)c12 (atropisomer, axis not shown) [Compound 85]"
> 10000,,> 10000,> 10000,,> 1000,C[C@H]1NCC[C@H]1Oc1nc(OC[C@@]23CCCN2C[C@H](F)C3)nc2c(F)c(-c3ccc(F)c4sc(N)nc34)ccc12 [Compound 83]
100 to 1000,,1000 to 10000,100 to 1000,,≤ 100,COC[C@H]1NCC[C@H]1Oc1nc(OC[C@@]23CCCN2C[C@H](F)C3)nc2c(F)c(-c3ccc(F)c4sc(N)c(C#N)c34)c(C(F)(F)F)cc12 [Compound 90]
> 10000,,> 10000,> 10000,,100 to 1000,COC[C@H]1NCC[C@H]1Oc1nc(OC[C@@]23CCCN2C[C@H](F)C3)nc2c(F)c(-c3ccc(F)c4sc(N)c(C#N)c34)ccc12 [Compound 91]
1000 to 10000,,> 10000,1000 to 10000,,100 to 1000,N#Cc1c(-c2ccc(F)c3sc(N)c(C#N)c23)c(Cl)cc2c(O[C@H]3CNC[C@H]3F)nc(OC[C@@]34CCCN3C[C@H](F)C4)nc12 [Compound 92]
1000 to 10000,,1000 to 10000,1000 to 10000,,≤ 100,"N#Cc1c(N)sc2c(F)ccc(-c3cc4nc(OC[C@@]56CCCN5C[C@H](F)C6)nc(O[C@@H]5CCNC5)c4nc3C(F)(F)F)c12 [Compound 93, 2-amino-7-fluoro-4-(2-(((2R,7aS)-2-fluorotetrahydro-1H-pyrrolizin-7a(5H)-yl)methoxy)-4-(((R)-pyrrolidin-3-yl)oxy)-6-(trifluoromethyl)pyrido[3,2-d]pyrimidin-7-yl)benzo[b]thiophene-3-carbonitrile]"
1000 to 10000,,1000 to 10000,1000 to 10000,,≤ 100,C[C@@H]1C[C@@H](Oc2nc(OC[C@@]34CCCN3C[C@H](F)C4)nc3cc(-c4ccc(F)c5sc(N)c(C#N)c45)c(C(F)(F)F)nc23)CN1 [Compound 94]
> 10000,,> 10000,> 10000,100 to 1000,,C[C@@H]1C[C@@H](Oc2nc(OC[C@@]34CCCN3C[C@H](F)C4)nc3cc(-c4ccc(F)c5sc(N)c(C#N)c45)c(C(F)(F)F)nc23)CN1 [Compound 95]
100 to 1000,,1000 to 10000,100 to 1000,,≤ 100,C[C@H]1NCC[C@H]1Oc1nc(OC[C@@]23CCCN2C[C@H](F)C3)nc2cc(-c3ccc(F)c4sc(N)c(C#N)c34)c(C(F)(F)F)nc12 [Compound 96]
